Measured values taken from PubChem BioAssay (NCI).
Values joined by “and” are separate entries in the source; they are usually repeats but may differ in a detail not shown here. Identical values can stand only once.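 Compound exposure: 48 hours, 5 concentrations, 96-well plates. The concentration for 50% growth inhibition is given as GI50. Definition used: TGI = concentration required for complete inhibition of growth.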 *1 amine or outer side, *2 acyl side, *3 side chain or, on linkers, in order; H or OH if unused. Where a SMILES comes first, the peptide text is derived from it. Bridges are numbered along the chain shown (N, C = ends). Roman numbers before positions name the chains, in order. [ ]: non-standard residue; d: D form. Actinocin(9to1) = Cc1c2oc3c(C)ccc(C(=O)[*:1])c3nc-2c(C(=O)[*:2])c(N)c1=O; NMeV = CN[CH](C(=O)O)C(C)C; Sar = CNCC(=O)O

Experiments:
Test in all cases: inhibition of tumour cell growth, NCI panel, 48 h
HL-60(TB) leukemia = tested on: HL-60(TB) leukemia
OVCAR-4 ovarian = tested on: OVCAR-4 ovarian
UACC-257 melanoma = tested on: UACC-257 melanoma
LOX IMVI melanoma = tested on: LOX IMVI melanoma
OVCAR-3 ovarian = tested on: OVCAR-3 ovarian
HOP-92 NSCLC = tested on: HOP-92 NSCLC
SNB-75 CNS = tested on: SNB-75 CNS
SK-MEL-28 melanoma = tested on: SK-MEL-28 melanoma
COLO 205 colon = tested on: COLO 205 colon
SNB-19 CNS = tested on: SNB-19 CNS

SMILES	TGI (HL-60(TB) leukemia) [µM]	TGI (OVCAR-4 ovarian)	TGI (UACC-257 melanoma)	TGI (LOX IMVI melanoma) [µM]	TGI (OVCAR-3 ovarian)	TGI (HOP-92 NSCLC) [µM]	TGI (SNB-75 CNS) [µM]	TGI (SK-MEL-28 melanoma)	TGI (COLO 205 colon)	TGI (SNB-19 CNS) [µM]	GI50 (HL-60(TB) leukemia) [µM]	GI50 (OVCAR-4 ovarian) [µM]	GI50 (UACC-257 melanoma)	GI50 (LOX IMVI melanoma) [nM]	GI50 (HOP-92 NSCLC) [µM]	GI50 (SK-MEL-28 melanoma)	GI50 (SNB-19 CNS) [µM]	GI50 (OVCAR-3 ovarian) [µM]	GI50 (SNB-75 CNS) [µM]	GI50 (COLO 205 colon) [µM]
C#CC[C@@]12CC(=O)C[C@@H]1CCC1(C2)OCCO1 (tested in a mixture with another compound)	> 100	> 100000 nM	> 100 µM	> 100	> 100000 nM	> 100	> 100	> 100 µM	> 100000 nM	> 100	–	–	–	–	–	–	–	–	–	–
CC(C)(C)c1ccc(C(O)CCCN2CCC(C(O)(c3ccccc3)c3ccccc3)CC2)cc1 (configuration not stated)	3.97	2750 nM	2.85 µM and 18.2 µM	2.82	–	2.6	–	3.11 µM and 19.2 µM	2520 nM and 21200 nM	–	2.16	1.44	1.4 µM and 13.2 µM	1500	1.2	1.72 µM and 13.9 µM	–	–	–	–
Cc1c2oc3c(C)ccc(C(=O)NC4C(=O)NC(Cc5ccccc5)C(=O)N5CCCC5C(=O)N(C)CC(=O)N(C)C(C(C)C)C(=O)OC4C)c3nc-2c(C(=O)NC2C(=O)NC(Cc3ccccc3)C(=O)N3CCCC3C(=O)N(C)CC(=O)N(C)C(C(C)C)C(=O)OC2C)c(N)c1=O (configuration not stated) (I: TFP[Sar][NMeV] / II: TFP[Sar][NMeV]; ester I:1-I:C, II:1-II:C; linker I:N-II:N via Actinocin(9to1); configuration not given here)	< 0.001	383 nM and 467 nM	0.0577 µM	–	25.2 nM and 40 nM	–	0.049	0.0298 µM and 0.0417 µM	11.2 nM and 17.4 nM	1.62	–	–	–	–	–	–	< 0.001	–	–	–
CN1CCN(Cc2c[nH]c3c2C(=O)c2c(c(O)c4ccccc4c2O)C3=O)CC1	70.4	42600 nM	33.1 µM	3.8	33200 nM	21.8	55.7	38.3 µM	70700 nM	52	10.3	21.3	15.9 µM	1920	7.09	19.6 µM	22.4	11.2	26.6	31.7
